Like-named read-outs stand apart in the source and are kept apart here.
Columns and labels:
influenza virus = experiment: microbe, parasite or virus in culture; type: cell-based; conditions: MDBK or MDCK cells, 3 days, WST-8
[1] = target: Cap-dependant Endonuclease (CEN) (RNP fraction, PB1-PB2-PA complex) (Influenza A virus (strain A/Wilson-Smith/1933 H1N1) (Influenza A virus (strain A/WS/1933 H1N1)), UniProt P15659); type: biochemical, influenza A/WSN/33 virus
[2] = unidentified influenza virus, 72 h, read-out: CPE EC50, parent compounds (Reference examples)
[3] = parent compounds (Reference examples), room temperature, 60 minutes
[4] = parent compounds (Reference examples), read-out: CPE EC50

Row | SMILES | EC50 (influenza virus; [2]) [nM] | IC50 [1, 3] [nM] | IC50 [1] [nM] | EC50 (influenza virus; [4]) [nM]
1 | C#Cc1cccc2c1[C@H](N1CN([C@H](C)C(F)(F)F)C(=O)c3c(O)c(=O)ccn31)c1ccccc1SC2 [compound 730] | 0.799 | 2.52 |  | 
2 | O=C1c2c(O)c(=O)ccn2N([C@@H]2c3ccccc3SCc3cccc(Cl)c32)[C@H]2COCCN12 [compound 682] | 3.5 | 19.7 |  | 
3 | COCCN1CC(C(c2ccccc2)c2ccccc2)n2cc(C(=O)O)c(=O)c(O)c2C1=O (stereo not shown) [Example 2] | 293 | 48 |  | 
4 | O=C1c2c(O)c(=O)ccn2N(C2c3ccccc3CCc3ccccc32)CN1C1COC1 [Reference example 629] | 64 | 89 |  | 
5 | C#Cc1cccc2c1[C@H](N1CN([C@H](C)C(F)(F)F)C(=O)c3c(O)c(=O)ccn31)c1cccc(F)c1SC2 [compound 726] | 3.93 | 3.74 |  | 
6 | C[C@@H](N1CN([C@H]2c3cc(F)ccc3CSc3c(Cl)cccc32)n2ccc(=O)c(O)c2C1=O)C(F)(F)F [Reference example 658] | 19 | 53 |  | 
7 | C[C@@H](N1CN([C@@H](c2ccccc2)c2ccccc2Cl)n2ccc(=O)c(O)c2C1=O)C(F)(F)F [Reference example 651] | 13 | 56 |  | 
8 | C[C@@H]1Sc2ccccc2[C@@H](N2CN([C@H](C)C(F)(F)F)C(=O)c3c(O)c(=O)ccn32)c2c(Cl)cccc21 [compound 748] | 9.14 | 24.2 |  | 
9 | C[C@@H](N1CN([C@@H]2c3ccccc3SCc3c2ccc(F)c3F)n2ccc(=O)c(O)c2C1=O)C(F)(F)F [compound 711] | 4.28 |  | 5.57 | 
10 | C[C@@H](N1CN([C@H]2c3ccccc3CSc3ccccc32)n2cc(CO)c(=O)c(O)c2C1=O)C(F)(F)F [compound 712] | 6.45 | 16.4 |  | 
11 | C[C@@H](N1CN([C@H]2c3ccc(F)cc3CSc3c(Cl)cccc32)n2ccc(=O)c(O)c2C1=O)C(F)(F)F [Reference example 602] | 4 | 5 |  | 
12 | C[C@@H](N1CN([C@H]2c3ccccc3CCc3c(F)cccc32)n2ccc(=O)c(O)c2C1=O)C(F)(F)F [Reference example 628] | 13 | 43 |  | 
13 | C[C@@H](N1CN([C@H]2c3ccccc3SCc3cccc(N(C)C)c32)n2ccc(=O)c(O)c2C1=O)C(F)(F)F [compound 753] | 18.5 | 109 |  | 
14 | CC(=O)c1cn2c(c(O)c1=O)C(=O)N([C@H](C)C(F)(F)F)CN2[C@@H]1c2ccccc2SCc2c1ccc(F)c2F [compound 706] | 7.19 | 18.6 |  | 
15 | C[C@@H](N1CN([C@@H]2c3ccccc3SCc3cccc(Br)c32)n2ccc(=O)c(O)c2C1=O)C(F)(F)F [Reference example 654] | 1 | 8 |  | 
16 | C[C@@H](N1CN([C@@H]2c3ccccc3SCc3cccc(Cl)c32)n2cc(CO)c(=O)c(O)c2C1=O)C(F)(F)F [compound 666] |  |  | 3.36 | 3.91
17 | C[C@@H](N1CN([C@H]2c3ccc(F)cc3CSc3c(Br)cccc32)n2ccc(=O)c(O)c2C1=O)C(F)(F)F [Reference example 619] | 6 | 5 |  | 
18 | C[C@@H](N1CN([C@H]2c3cccc(F)c3SCc3cccc(Cl)c32)n2ccc(=O)c(O)c2C1=O)C(F)(F)F [Reference example 622] | 12 |  | 89 | 
19 | C[C@@H](N1CN([C@@H]2c3ccccc3SCc3c2ccc(F)c3F)n2cc(Cl)c(=O)c(O)c2C1=O)C(F)(F)F [compound 716] | 5.6 |  | 5.54 | 
20 | COC(=O)c1cn2c(c(O)c1=O)C(=O)N1CCCCN1C2C(c1ccccc1)c1ccccc1 (stereo not shown) [Reference example 506] | 1620 | 247 |  | 
21 | C[C@@H](N1CN([C@H]2c3ccccc3CSc3cccc(F)c32)n2ccc(=O)c(O)c2C1=O)C(F)(F)F [Reference example 603] | 15 | 37 |  | 
22 | C[C@@H](N1CN([C@@H]2c3cccc(F)c3SCc3cccc(Br)c32)n2ccc(=O)c(O)c2C1=O)C(F)(F)F [compound 771] | 4.05 | 5.89 |  | 
23 | C[C@@H](N1CN([C@@H]2c3cccc(F)c3CSc3c(Cl)cccc32)n2ccc(=O)c(O)c2C1=O)C(F)(F)F [Reference example 597] | 49 |  | 339 | 
24 | C[C@@H](N1CN([C@@H]2c3ccccc3SCc3cccc(Cl)c32)n2cc(B(O)O)c(=O)c(O)c2C1=O)C(F)(F)F [compound 707] | 3.05 | 40.2 |  | 
25 | C[C@@H](N1CN([C@@H]2c3ccccc3SCc3c(Cl)cccc32)n2ccc(=O)c(OCOC(=O)NCCN)c2C1=O)C(F)(F)F [Example 178] |  |  | 61 | 75
26 | Cc1cccc2c1SCc1cccc(Cl)c1[C@@H]2N1CN([C@H](C)C(F)(F)F)C(=O)c2c(O)c(=O)ccn21 [compound 768] | 3.64 | 15.3 |  | 
27 | Cc1cccc2c1CSc1c(F)cccc1[C@H]2N1CN([C@H](C)C(F)(F)F)C(=O)c2c(O)c(=O)ccn21 [Reference example 617] | 17 | 53 |  | 

Row | SMILES | EC50 (influenza virus; [2]) [nM] | IC50 [1, 3] [nM] | IC50 [1] [nM] | EC50 (influenza virus; [4]) [nM]
28 | C[C@@H](N1CN(C2c3ccccc3CCc3cccc(Cl)c32)n2ccc(=O)c(O)c2C1=O)C(F)(F)F (stereo partly shown) [compound 686] | 7.86 | 15.1 |  | 
29 | Cc1cccc2c1CCc1c(C)cccc1C2N1CN([C@H](C)C(F)(F)F)C(=O)c2c(O)c(=O)ccn21 [Reference example 632] | 38 | 132 |  | 
30 | Cc1cn2c(c(O)c1=O)C(=O)N([C@H](C)C(F)(F)F)CN2[C@@H]1c2ccccc2SCc2c1ccc(F)c2F [compound 704] | 3.5 | 11.1 |  | 
31 | C[C@@H](N1CN([C@@H]2c3cccc(F)c3SCc3cccc(F)c32)n2ccc(=O)c(O)c2C1=O)C(F)(F)F [Reference example 599] | 8 | 25 |  | 
32 | C[C@@H](N1CN([C@H]2c3cc(F)c(F)cc3CSc3ccccc32)n2ccc(=O)c(O)c2C1=O)C(F)(F)F [compound 668] | 3.84 |  | 12.6 | 
33 | C[C@@H](N1CN([C@@H]2c3cccc(Cl)c3SCc3cccc(F)c32)n2ccc(=O)c(O)c2C1=O)C(F)(F)F [Reference example 601] | 8 | 25 |  | 
34 | Cc1cccc2c1[C@H](N1CN([C@H](C)C(F)(F)F)C(=O)c3c(O)c(=O)ccn31)c1ccccc1SC2 [Reference example 665] | 5 | 18 |  | 
35 | C[C@@H](N1CN([C@@H]2c3ccccc3SCc3c2ccc(F)c3F)n2cc(B(O)O)c(=O)c(O)c2C1=O)C(F)(F)F [compound 709] | 7.09 | 34.3 |  | 
36 | C[C@@H](N1CN(C2c3ccccc3CCc3cc(F)c(F)cc32)n2ccc(=O)c(O)c2C1=O)C(F)(F)F (stereo partly shown) [Reference example 636] | 15 | 74 |  | 
37 | COCCCC1N(CC(F)(F)F)C(=O)c2c(O)c(=O)ccn2N1C1c2ccccc2CCc2ccccc21 (stereo not shown) [Reference example 642] | 94 |  | 256 | 
38 | C[C@@H](N1CN([C@@H]2c3ccccc3SCc3cccc(Cl)c32)n2cc(Cl)c(=O)c(O)c2C1=O)C(F)(F)F [compound 762] | 5.9 | 31.5 |  | 
39 | CCc1cccc2c1[C@H](N1CN([C@H](C)C(F)(F)F)C(=O)c3c(O)c(=O)ccn31)c1cccc(F)c1SC2 [compound 724] | 6.33 | 5.07 |  | 
40 | C[C@@H](N1CN([C@@H]2c3ccccc3SCc3cccc(N(C)C)c32)n2ccc(=O)c(O)c2C1=O)C(F)(F)F [compound 752] | 3.12 | 14.2 |  | 
41 | C[C@@H](N1CN([C@@H]2c3ccc(F)cc3SCc3cccc(F)c32)n2ccc(=O)c(O)c2C1=O)C(F)(F)F [Reference example 598] | 5 | 16 |  | 
42 | C[C@@H](N1CN(C2c3ccc(F)cc3CCc3cc(F)ccc32)n2ccc(=O)c(O)c2C1=O)C(F)(F)F [Reference example 640] | 6 | 57 |  | 
43 | CC(C)N1C(=O)c2c(OCc3ccccc3)c(=O)ccn2N(C2c3ccccc3CCc3ccccc32)C1c1ccc(Cl)cc1 (stereo not shown) [Reference example 527] |  |  | 127 | 88
44 | C[C@@H](N1CN([C@@H]2c3ccccc3SCc3cccc(C4CC4)c32)n2ccc(=O)c(O)c2C1=O)C(F)(F)F [compound 691] | 4.05 | 3.67 |  | 
45 | O=C1c2c(O)c(=O)ccn2N(C2c3ccccc3CSc3ccccc32)CN1C1COC1 (stereo not shown) [Reference example 609] | 25 | 53 |  | 
46 | C[C@@H](N1CN(C(c2ccccc2Cl)c2ccccc2Cl)n2ccc(=O)c(O)c2C1=O)C(F)(F)F [Reference example 648] | 59 | 132 |  | 
47 | C[C@@H](N1CN([C@@H]2c3ccc(F)cc3SCc3cccc(Cl)c32)n2ccc(=O)c(O)c2C1=O)C(F)(F)F [compound 772] | 3.68 | 5.22 |  | 
48 | Cc1cccc2c1[C@@H](N1CN([C@H](C)C(F)(F)F)C(=O)c3c(O)c(=O)ccn31)c1ccccc1SC2 [Reference example 662] | 22 | 316 |  | 
49 | C[C@@H](N1CN([C@H]2c3ccc(F)cc3CSc3ccccc32)n2cc(B(O)O)c(=O)c(O)c2C1=O)C(F)(F)F [compound 708] | 8.49 | 46.5 |  | 
50 | COC[C@H](C)N1C(=O)c2c(O)c(=O)ccn2N(C2c3ccccc3CCc3ccccc32)C1CCN(C)C (stereo partly shown) [Reference example 644] | 60 |  | 238 | 
51 | C[C@@H](N1CN(C(c2ccc(F)cc2)c2ccc(F)cc2)n2ccc(=O)c(O)c2C1=O)C(F)(F)F [Reference example 649] | 51 | 182 |  | 
52 | C[C@@H](N1CN(C(c2ccccc2)c2ccc(Cl)cc2)n2ccc(=O)c(O)c2C1=O)C(F)(F)F (stereo partly shown) [Reference example 650] | 103 | 219 |  | 
53 | C[C@@H](N1CN([C@H]2c3ccccc3SCc3cccc(Br)c32)n2ccc(=O)c(O)c2C1=O)C(F)(F)F [Reference example 661] | 14 | 135 |  | 

— US10202379B2, “Substituted polycyclic carbamoyl pyridone derivative prodrug” (priority 2010, dated 2019)
